Test results: article PMC3375359 (Journal of Medicinal Chemistry, 2012)
Like-named read-outs stand apart in the source and are kept apart here.

Key:
[1] = target: T1, human MOR (Homo sapiens, UniProt P35372); details: Table 1; ratio of Ki values; cited from earlier work
[2] = target: T1, human MOR; type: binding
[3] = target: human μ opioid receptor (Homo sapiens, UniProt P35372); experiment: [35S]GTPγS binding mediated by the mu opioid receptor; type: biochemical; details: [35S]GTPγS binding assay, in words
[4] = target: human KOR (Homo sapiens, UniProt P41145); details: from binding affinities
human KOR, sequence (P41145 whole entry): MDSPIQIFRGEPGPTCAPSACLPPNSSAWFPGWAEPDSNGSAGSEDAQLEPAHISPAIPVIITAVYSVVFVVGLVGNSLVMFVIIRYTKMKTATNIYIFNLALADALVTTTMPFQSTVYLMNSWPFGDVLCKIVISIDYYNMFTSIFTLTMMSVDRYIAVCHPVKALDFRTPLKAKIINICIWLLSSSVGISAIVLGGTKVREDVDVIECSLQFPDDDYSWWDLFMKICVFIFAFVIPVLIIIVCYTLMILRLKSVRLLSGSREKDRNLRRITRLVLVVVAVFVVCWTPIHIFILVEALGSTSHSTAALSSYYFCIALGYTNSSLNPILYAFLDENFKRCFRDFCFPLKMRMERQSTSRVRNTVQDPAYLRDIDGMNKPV

T1 sequence (P35372 whole entry): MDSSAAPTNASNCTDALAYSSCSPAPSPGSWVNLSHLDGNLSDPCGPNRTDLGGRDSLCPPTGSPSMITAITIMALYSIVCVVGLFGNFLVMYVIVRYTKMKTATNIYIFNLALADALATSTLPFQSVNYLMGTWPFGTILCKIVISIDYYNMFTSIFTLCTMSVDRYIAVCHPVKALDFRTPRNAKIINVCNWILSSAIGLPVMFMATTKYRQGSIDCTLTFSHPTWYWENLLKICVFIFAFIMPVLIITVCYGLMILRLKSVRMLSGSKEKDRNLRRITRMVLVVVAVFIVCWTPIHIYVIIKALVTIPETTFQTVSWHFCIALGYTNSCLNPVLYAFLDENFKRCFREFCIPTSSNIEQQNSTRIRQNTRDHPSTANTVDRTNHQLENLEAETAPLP
human μ opioid receptor, sequence (P35372 whole entry): as above

Row | SMILES | Selectivity MOR/KOR/DOR [2] | Selectivity MOR/KOR/DOR ([2]; Table 1, ratio of Ki values) | also measured
1 | CN1CC[C@]23CCCC[C@H]2[C@H]1Cc1ccc(N)cc13 [Compound 2a] | – | – | Selectivity MOR/KOR/DOR [1]: 1/14/190
2 | Nc1ccc2c(c1)[C@@]13CCCC[C@H]1[C@@H](C2)N(CC1CCC1)CC3 [Compound 2b] | – | – | Selectivity MOR/KOR/DOR [1]: 2/1/100
3 | Nc1ccc2c(c1)[C@@]13CCCC[C@H]1[C@@H](C2)N(CC1CC1)CC3 [Compound 2c] | 7/1/830 | – | –
4 | COc1ccccc1CNc1ccc2c(c1)[C@@]13CCCC[C@H]1[C@@H](C2)N(CC1CCC1)CC3 [Compound 3a, (−)-17-(cyclobutylmethyl)-N-(2-methoxybenzyl)-morphinan-3-amine] | 1/1/28 | – | –
5 | COc1cccc(CNc2ccc3c(c2)[C@@]24CCCC[C@H]2[C@@H](C3)N(CC2CCC2)CC4)c1 [Compound 3b, (−)-17-(cyclobutylmethyl)-N-(3-methoxybenzyl)-morphinan-3-amine] | 1/5/220 | – | –
6 | COc1ccc(CNc2ccc3c(c2)[C@@]24CCCC[C@H]2[C@@H](C3)N(CC2CCC2)CC4)cc1 [Compound 3c, (−)-17-(cyclobutylmethyl)-N-(4-methoxybenzyl)-morphinan-3-amine] | – | 1/5/300 | –
7 | Clc1ccc(CNc2ccc3c(c2)[C@@]24CCCC[C@H]2[C@@H](C3)N(CC2CCC2)CC4)cc1 [Compound 3d, (−)-17-(cyclobutylmethyl)-N-(4-chlorobenzyl)-morphinan-3-amine] | 1/3/59 | – | –
8 | c1cc2c(cc1CNc1ccc3c(c1)[C@@]14CCCC[C@H]1[C@@H](C3)N(CC1CCC1)CC4)OCO2 [Compound 3e, (−)-17-(cyclobutylmethyl)-N-(3,4-methylenedioxybenzyl)morphinan-3-amine] | – | 1/3/160 | –
9 | COc1ccccc1CNc1ccc2c(c1)[C@@]13CCCC[C@H]1[C@@H](C2)N(CC1CC1)CC3 [Compound 3f, (−)-17-(cyclopropylmethyl)-N-(2-methoxybenzyl)-morphinan-3-amine] | 1/1/130 | – | –
10 | COc1cccc(CNc2ccc3c(c2)[C@@]24CCCC[C@H]2[C@@H](C3)N(CC2CC2)CC4)c1 [Compound 3g, (−)-17-(cyclopropylmethyl)-N-(3-methoxybenzyl)-morphinan-3-amine] | 1/3/220 | – | –
11 | COc1ccc(CNc2ccc3c(c2)[C@@]24CCCC[C@H]2[C@@H](C3)N(CC2CC2)CC4)cc1 [Compound 3h, (−)-17-(cyclopropylmethyl)-N-(4-methoxybenzyl)-morphinan-3-amine] | – | 1/2/65 | –
12 | c1cc2c(cc1CNc1ccc3c(c1)[C@@]14CCCC[C@H]1[C@@H](C3)N(CC1CC1)CC4)OCO2 [Compound 3i, (−)-17-(cyclopropylmethyl)-N-(3,4-methylenedihydroxybenzyl)-morphinan-3-amine] | – | 1/3/120 | –
13 | O=[N+]([O-])c1cccc(CNc2ccc3c(c2)[C@@]24CCCC[C@H]2[C@@H](C3)N(CC2CCC2)CC4)c1 [Compound 3k, (−)-3-(3′-nitrobenzyl)amino-17-cyclobutylmethylmorphinan] | – | 1/3/350 | –
14 | Oc1ccccc1CNc1ccc2c(c1)[C@@]13CCCC[C@H]1[C@@H](C2)N(CC1CCC1)CC3 [Compound 4a, (−)-17-(cyclobutylmethyl)-N-(2-hydroxybenzyl)-morphinan-3-amine] | 1/1/65 | – | –
15 | Oc1cccc(CNc2ccc3c(c2)[C@@]24CCCC[C@H]2[C@@H](C3)N(CC2CCC2)CC4)c1 [Compound 4b, (−)-17-(cyclobutylmethyl)-N-(3-hydroxybenzyl)-morphinan-3-amine] | 1/6/720 | – | –
16 | Oc1ccc(CNc2ccc3c(c2)[C@@]24CCCC[C@H]2[C@@H](C3)N(CC2CCC2)CC4)cc1 [Compound 4c, (−)-17-(cyclobutylmethyl)-N-(4-hydroxybenzyl)morphinan-3-amine] | – | 1/7/340 | –
17 | Oc1ccccc1CNc1ccc2c(c1)[C@@]13CCCC[C@H]1[C@@H](C2)N(CC1CC1)CC3 [Compound 4d, (−)-17-(cyclopropylmethyl)-N-(2-hydroxybenzyl)morphinan-3-amine] | 10/1/150 | – | –
18 | Oc1cccc(CNc2ccc3c(c2)[C@@]24CCCC[C@H]2[C@@H](C3)N(CC2CC2)CC4)c1 [Compound 4e, (−)-17-(cyclopropylmethyl)-N-(3-hydroxybenzyl)-morphinan-3-amine] | – | 1/2/260 | –
19 | Oc1ccc(CNc2ccc3c(c2)[C@@]24CCCC[C@H]2[C@@H](C3)N(CC2CC2)CC4)cc1 [Compound 4f, (−)-17-(cyclopropylmethyl)-N-(4-hydroxybenzyl)-morphinan-3-amine] | – | 1/1/44 | –
20 | CN1CC[C@]23CCCC[C@H]2[C@H]1Cc1ccc(NCc2cccc(O)c2)cc13 [Compound 4g] | – | 1/24/1700 | selectivity MOR to DOR ([2]; from binding affinities): ~2000 fold; functional activity at MOR (agonist character) [3]: full agonist
21 | COc1ccccc1CN(C)c1ccc2c(c1)[C@@]13CCCC[C@H]1[C@@H](C2)N(CC1CCC1)CC3 [Compound 5a, (−)-17-(cyclobutylmethyl)-N-methyl-N-(2-methoxybenzyl)-morphinan-3-amine] | 1/1/14 | – | –
22 | COc1cccc(CN(C)c2ccc3c(c2)[C@@]24CCCC[C@H]2[C@@H](C3)N(CC2CCC2)CC4)c1 [Compound 5b] | 1/2/27 | – | –
23 | COc1ccc(CN(C)c2ccc3c(c2)[C@@]24CCCC[C@H]2[C@@H](C3)N(CC2CCC2)CC4)cc1 [Compound 5c, (−)-17-(cyclobutylmethyl)-N-methyl-N-(4-methyloxybenzyl)-morphinan-3-amine] | – | 1/1/34 | –
24 | CN(Cc1ccc(Cl)cc1)c1ccc2c(c1)[C@@]13CCCC[C@H]1[C@@H](C2)N(CC1CCC1)CC3 [Compound 5d, (−)-17-(cyclobutylmethyl)-N-methyl-N-(4-chlorobenzyl)-morphinan-3-amine] | – | 1/1/28 | –
25 | CN(Cc1cccc(O)c1)c1ccc2c(c1)[C@@]13CCCC[C@H]1[C@@H](C2)N(CC1CCC1)CC3 [Compound 6b] | – | 1/1/10 | –
26 | CN(Cc1ccc(O)cc1)c1ccc2c(c1)[C@@]13CCCC[C@H]1[C@@H](C2)N(CC1CCC1)CC3 [Compound 6c, (−)-17-(cyclobutylmethyl)-N-methyl-N-(4-hydroxybenzyl)-morphinan-3-amine] | – | 1/1/170 | –
27 | c1ccc(CNc2ccc3c(c2)[C@@]24CCCC[C@H]2[C@@H](C3)N(CC2CC2)CC4)cc1 [Compound 8a, reference compound] | – | – | Selectivity MOR/KOR/DOR [1]: 1/1/112
28 | c1ccc(CNc2ccc3c(c2)[C@@]24CCCC[C@H]2[C@@H](C3)N(CC2CCC2)CC4)cc1 [Compound 8d, reference compound] | – | – | Selectivity MOR/KOR/DOR [1]: 1/2/76
29 | CN1CC[C@]23c4c5ccc(NCc6cccc(O)c6)c4O[C@H]2[C@@H](O)C=C[C@H]3[C@H]1C5 [Compound 12b, 3-(3′-hydroxybenzyl)amino-7,8-didehydro-4,5-epoxy-17-methyl-(5α,6α)-morphinan-6-ol] | – | – | functional activity at MOR (agonist character) [3]: full agonists
30 | Oc1cccc(CNc2ccc3c(c2)C[C@@H]2[C@@H]4CCCC[C@]34CCN2CC2CC2)c1 [Compound 17, 2-(3′-Hydroxybenzyl)amino-17-cyclopropylmethylmorphinan] | – | – | selectivity KOR over the DORs [4]: > 10,000 fold
